From patent US20210353633A1, “CYCLODEXTRIN-BASED FORMULATION OF A BCL-2 INHIBITOR” (LES LABORATOIRES SERVIER, priority 2018, published 2021)
Structures can show the parent of a compound that is named as a salt. Where two headings read alike, the source gives them in different places.

Assay: Test of maximum solubility of Compound A, HCl in a HP-β-cyclodextrin as a function of the pH
Format: physicochemical
Conditions: Cavitron W7HP5 solution, aqueous with cosolvent or surfactant or cyclodextrin, thermodynamic from solid, Cavitron W7HP5 20% by weight, read-out: Solubility after 24 h
Procedure: The solubility of Compound A, HCl was studied in the presence of a HP-β-cyclodextrin as a function of the pH by means of various buffers (acetate pH=4 and phosphate pH=7.4).
0.75 g of sodium acetate trihydrate (NaC2H3O2, 3H2O) is introduced into a 250 mL graduated flask. 3.5 mL of 2 N acetic acid solution (produced from glacial acetic acid) are added. The volume is then made up to 250 mL by means of 0.9% NaCl solution, and the whole is then stirred. The pH is then adjusted to 4 by means of 1 N HCl solution.
2.075 g of monobasic potassium phosphate (KH2PO4) and 0.238 g of dibasic sodium phosphate (Na2HPO4) are dissolved in 100 mL of water. The whole is stirred until solubilisation is complete. The volume is then made up to 250 mL by means of 0.9% NaCl solution. The pH is adjusted to the desired value (7.4) by means of 1N sodium hydroxide solution.
2 g of the cyclodextrin studied (Cavitron™ W7HP5) are weighed into a 10 mL graduated flask. The volume is then made up to 10 mL by means of a water/0.9% NaCl mixture (80/20) or an acetate or phosphate buffer solution, depending on the desired pH.
Approximately 10 mg of Compound A, HCl are weighed. 1 mL of the medium containing the carrier to be tested, that is to say Cavitron™ W7HP5 without pH adjustment, Cavitron™ W7HP5 adjusted to pH=4 or Cavitron™ W7HP5 adjusted to pH=7.4, is then added. The whole is then placed under magnetic stirring. Then, 5 mg of Compound A, HCl are added. The operation is repeated if the compound solubilises. The mixture is stirred for 24 hours. The suspension so obtained is passed through a 0.45 μm filter before being analysed by HPLC chromatography.

## Cc1c(N(C(=O)c2cc(-c3cc(Cl)ccc3C(=O)N3Cc4ccccc4C[C@H]3CN3CCOCC3)n(C)c2C)c2ccc(O)cc2)cc(C#N)n1C [Compound A, HCl, 5-(5-chloro-2-{[(3S)-3-(morpholin-4-ylmethyl)-3,4-dihydroisoquinolin-2(1H)-yl]carbonyl}phenyl)-N-(5-cyano-1,2-dimethyl-1H-pyrrol-3-yl)-N-(4-hydroxyphenyl)-1,2-dimethyl-1H-pyrrole-3-carboxamide]
pH = 3.8, i.e. pH not adjusted
  solubility at 24 h: 24.6 mg/mL
pH = 4 (acetate buffer)
  solubility at 24 h: 13 mg/mL
pH = 7.4 (phosphate buffer)
  solubility at 24 h: 1.69 mg/mL
